Measured values published in PubChem BioAssay (NCI).
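These data come from cells grown in 96-well plates and exposed to compound for 48 hours at five concentrations. GI50 = concentration required for 50% inhibition of growth. TGI denotes the concentration required for complete inhibition of growth.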

Assays:
Experiment in all cases: NCI tumour cell line growth inhibition, 48 h
[1] = test system: CAKI-1 renal
[2] = test system: NCI-H23 lung
[3] = test system: HCT-15 colon
[4] = test system: SR leukemia
[5] = test system: SK-OV-3 ovarian
[6] = test system: RXF 393 renal
[7] = test system: NCI-H226 lung
[8] = test system: HOP-18 NSCLC
[9] = test system: 786-0 renal
[10] = test system: IGROV1 ovarian

Row | Structure (SMILES) | TGI [1] | TGI [2] | TGI [3] | TGI [4] | TGI [5] | TGI [6] | TGI [7] | TGI [8] | TGI [9] | TGI [10] | GI50 [1] | GI50 [2] | GI50 [3] | GI50 [5] | GI50 [6] | GI50 [7] | GI50 [10] | GI50 [9] | GI50 [8] | GI50 [4]
1 | COc1ccc(C(=O)NCCN(C)C)c2nc3ccccc3nc12 | > 36.2 µM | 17.9 µM | 24.4 µM | 23.3 µM | > 63.2 µM | 25.4 µM | 16.8 µM | > 82.6 µM | > 59.9 µM | – | – | – | – | – | – | – | – | – | – | –
2 | COC(=O)C1(C(=O)OC)CC(=O)c2cc3c(cc2-c2c(cc(OC)c(OC)c2OC)C1)OCO3 | > 211 µM | > 211 µM | > 211 µM | > 211 µM | > 211 µM | > 211 µM | > 211 µM | > 211 µM | > 211 µM | > 211 µM | – | – | – | – | – | – | – | – | – | –
3 | Cc1c(C(=O)O)oc2ccc([N+](=O)[O-])cc12 | > 100 µM | > 100 µM | > 100 µM | – | > 100 µM | – | – | > 100 µM | > 100 µM | > 100 µM | – | – | – | – | – | – | – | – | – | –
4 | CSC1=Nc2ccccc2N=C(c2ccc(Cl)cc2)C1 | > 100 µM | > 100 µM | > 100 µM | > 100 µM | > 100 µM | 79.2 µM | > 100 µM | > 100 µM | > 100 µM | > 100 µM | – | – | – | – | – | – | – | – | – | –
5 | CC(=O)N1CCC2(c3ccccc3N(C(C)=O)C2c2ccc(O)cc2)C1C(=O)O (stereo not given) | – | > 100 µM | – | > 100 µM | > 100 µM | > 100 µM | > 100 µM | > 100 µM | > 100 µM | – | – | – | – | – | – | – | – | – | – | –
6 | O=C(N/N=C/c1cccc(F)c1)c1ccncc1 | – | > 100 µM | > 100 µM | > 100 µM | > 100 µM | > 100 µM | 3.78 µM | > 100 µM | > 100 µM | – | – | – | – | – | – | – | – | – | – | –
7 | CCNC(=O)COc1ccc(Cl)cc1Cl | > 100 µM | > 100 µM | > 100 µM | > 100 µM | > 100 µM | – | > 100 µM | > 100 µM | > 100 µM | > 100 µM | – | – | – | – | – | – | – | – | – | –
8 | O=[N+]([O-])c1ccc(-c2ccc(-c3csc(Nc4ccccc4)n3)o2)cc1 | 39.5 µM | 36.8 µM | 42.5 µM | 4.76 µM | > 100 µM | – | > 84.1 µM | 29.4 µM | 30.9 µM | > 63.9 µM | – | – | – | – | – | – | – | – | – | –
9 | COc1ccc2c(c1)/C(=C/c1cc(OC)c(OC)c(OC)c1)C(=O)N2 | – | > 63.2 µM | > 100 µM | 0.59 µM | 5.23 µM | 0.587 µM | > 100 µM | – | > 94.3 µM | > 53.8 µM | 118 nM | 613 nM | 393 nM | 260 nM | 187 nM | > 30.9 µM | 268 nM | 236 nM | – | –
10 | COc1ccc(/C(=N\NC(=S)NN)C(c2ccc(OC)cc2)C2C(=O)Oc3ccccc32)cc1 (stereo not given) | – | > 100 µM | > 100 µM | > 100 µM | > 100 µM | > 100 µM | > 100 µM | > 100 µM | > 100 µM | > 100 µM | – | > 100000 nM | > 100000 nM | > 100000 nM | > 100000 nM | > 100 µM | > 100000 nM | > 100000 nM | > 100 µM | –
11 | CCNC(=O)c1noc(-c2cc(C(C)C)c(O)cc2O)c1-c1ccc(CN2CCOCC2)cc1 | > 100 µM | 27.2 µM | 19.9 µM | 29 µM | 22.3 µM | 17.8 µM | 26.6 µM | – | 31.5 µM | > 100 µM | 59 nM | 53.5 nM | 38.8 nM | < 10 nM | 25.7 nM | 0.0409 µM | < 22.4 nM | 1980 nM | – | 40.7 nM
12 | Cn1c2c(c3ccccc31)CCN(CCN1CCN(c3cccc(Cl)c3)CC1)C2=O | – | > 100 µM | > 100 µM | – | > 100 µM | > 100 µM | – | > 100 µM | > 100 µM | > 100 µM | – | – | – | – | – | – | – | – | – | –
13 | COc1ccc2[nH]c3c(c2c1)[C@H](C)C[C@@H]1C(=O)N(c2ccccc2)C(=O)[C@H]31 | > 100 µM | 66.8 µM | > 100 µM | 70.1 µM | 46 µM | 53.1 µM | – | 46.3 µM | 48.5 µM | > 100 µM | – | – | – | – | – | – | – | – | – | –
14 | CCOC(=O)c1cc2c3c(c(O)c(OC)c2s1)N(C(=O)c1cc2c4c(c(O)c(OC)c2s1)N(C(C)=O)CC4)CC3 | > 100 µM | > 100 µM | – | – | > 100 µM | > 100 µM | > 100 µM | > 100 µM | > 100 µM | > 100 µM | – | – | – | – | – | – | – | – | – | –
15 | O=c1oc2ccccc2[n+]([O-])c1-c1ccccc1 | > 100 µM | > 100 µM | > 100 µM | – | > 100 µM | > 100 µM | > 100 µM | > 100 µM | > 100 µM | > 100 µM | – | – | – | – | – | – | – | – | – | –
16 | COC(=O)C1(C)Cc2cc(OC(C)=O)c(OC(C)=O)cc2N1 (stereo not given) | 11.3 µM | 62.5 µM | 12.9 µM | 4.76 µM | > 100 µM | 8.48 µM | 60 µM | – | 62.2 µM | 13.9 µM | 2980 nM | 18200 nM | 2640 nM | > 87400 nM | 2340 nM | 14.8 µM | 5930 nM | 24100 nM | – | 1650 nM
17 | CNC(=O)c1nn(C)c2c1C(C)(C)Cc1cnc(Nc3ccc(N4CCN(C)CC4)cc3)nc1-2 | 1.22 µM | > 7.26 µM | > 10 µM | > 5.71 µM | 1.54 µM | > 4.5 µM | > 8.57 µM | – | > 10 µM | 1.6 µM | 114 nM | 966 nM | 337 nM | 209 nM | 343 nM | 0.958 µM | 182 nM | 649 nM | – | 452 nM
18 | CC(=O)OCC1OC(N2C(=O)C(=O)c3ccccc32)C(OC(C)=O)C(OC(C)=O)C1OC(C)=O (stereo not given) | > 100 µM | > 100 µM | > 100 µM | > 100 µM | > 100 µM | > 100 µM | > 100 µM | – | > 100 µM | > 100 µM | – | – | – | – | – | – | – | – | – | –
19 | CCOC(=O)C1SC(=Nc2ccc(Cl)cc2)N=C1C (stereo not given) | – | 34.9 µM | 30 µM | […] | – | 36.3 µM | 41.9 µM | 42.5 µM | 30.7 µM | 40 µM | – | – | – | – | – | – | – | – | – | –
20 | Cc1cc(N(CCC#N)CCC#N)ccc1/C=C(\NC(=O)/C=C/c1ccccc1)C(=O)NN | > 100 µM | > 100 µM | > 100 µM | > 100 µM | > 82.6 µM | > 92.3 µM | > 90.2 µM | – | > 100 µM | > 100 µM | – | – | – | – | – | – | – | – | – | –
